# Reference: US20050042213A1, “Methods and pharmaceutical compositions for modulating heparanase activation and uses thereof” (InSight Biopharmaceuticals Ltd., priority 2003, published 2005)
# Experiments:
# pro-heparanase (H60) = molecular target: T1, pro-heparanase (H60) (Homo sapiens, UniProt Q9Y251, K307R); assay: Circular dichroism spectrometry of pro-heparanase; details: data not shown
# T1 sequence (Q9Y251 36-543 K307R): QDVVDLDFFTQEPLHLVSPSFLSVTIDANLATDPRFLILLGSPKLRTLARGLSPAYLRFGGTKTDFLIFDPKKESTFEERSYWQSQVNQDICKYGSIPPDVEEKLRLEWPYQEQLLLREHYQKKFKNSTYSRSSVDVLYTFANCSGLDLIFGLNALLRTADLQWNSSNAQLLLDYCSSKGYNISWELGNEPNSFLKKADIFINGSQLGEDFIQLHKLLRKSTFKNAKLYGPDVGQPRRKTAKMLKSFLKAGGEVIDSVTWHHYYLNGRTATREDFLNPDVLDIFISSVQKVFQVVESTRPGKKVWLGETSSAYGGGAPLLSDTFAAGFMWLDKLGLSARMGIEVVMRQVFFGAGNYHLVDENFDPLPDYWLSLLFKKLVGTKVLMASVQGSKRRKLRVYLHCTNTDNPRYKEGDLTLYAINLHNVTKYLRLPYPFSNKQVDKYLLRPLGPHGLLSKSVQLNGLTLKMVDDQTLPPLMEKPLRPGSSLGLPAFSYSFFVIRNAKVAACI
# Description: Circular Dichroism spectrometry—Circular Dichroism spectra were recorded using a JASCO 500 spetropolarimeter. Far Ultraviolet measurements (260-200 nm) were performed in a 0.1 mm demountable cuvette at 25° C., scanning at a rate of 10 nm/min. Pro-heparanase was assayed at a concentration of 0.72 mg/ml in 20 mM sodium phosphate buffer pH 6.8 supplemented with 300 mM NaCl. Effect of heparin on pro-heparanase spectra was determined at a concentration of 100 μM, and the inhibitor was added at a concentration of 15 μM. Base-line recordings were performed in the presence and absence of heparin to correct the pro-heparanase spectra.
# β-FGF = molecular target: T2, β-FGF (Homo sapiens, UniProt P09038); assay: Elisa assay for binding of β-FGF to heparin; details: inhibition of β-FGF binding to heparin
# T2 construct: purchased Sigma F0291
# T2 sequence (P09038 143-288): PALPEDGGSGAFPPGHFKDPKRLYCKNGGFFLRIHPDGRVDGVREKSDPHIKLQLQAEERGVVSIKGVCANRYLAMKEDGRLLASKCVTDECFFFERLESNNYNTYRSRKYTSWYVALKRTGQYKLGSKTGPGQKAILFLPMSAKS
# Description: Elisa assay for determination of binding of β-FGF to heparin—96 well microplates were coated overnight with Heparin-albumin (Lizard) and blocked with 1% BSA in PBS with 0.05% Tween and 0.01% thimerosal for 2 hrs. β-FGF was added to the plates at a concentration of 0.8 ng/ml and incubated for 45 min at 23-25° C. The amount of β-FGF bound to heparin was detected using anti-FGF monoclonal antibody (Sigma Cat. # F6162) at a concentration of 2.5 ng/ml and secondary antibodies Sheep anti-mouse IgG linked to horseradish peroxidase (1:3000). TMB (Pierce Cat. #34021) was used as a substrate for peroxidase.
# (§1) The plates were read at 450 nm with a reference wavelength of 630 nm using a VERSAmax plate reader. […] Percent inhibition was calculated as compared with the control reactions pre-incubated with 1% DMSO only.
# VEGF = molecular target: T3, VEGF (Homo sapiens, UniProt P15692); assay: Elisa assay for binding of VEGF to heparin; details: inhibition of VEGF binding to heparin
# T3 sequence (P15692 27-191 isoform P15692-4): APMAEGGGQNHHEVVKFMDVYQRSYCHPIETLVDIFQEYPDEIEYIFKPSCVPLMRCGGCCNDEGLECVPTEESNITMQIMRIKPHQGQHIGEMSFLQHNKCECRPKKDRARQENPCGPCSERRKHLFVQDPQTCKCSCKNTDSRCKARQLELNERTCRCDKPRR
# Description: Elisa assay for determination of binding of VEGF to heparin—96 well microplates were coated overnight with Heparin-albumin (Lizard) and blocked with 1% BSA in PBS with 0.05% Tween and 0.01% thimerosal for 2 hrs. VEGF was added to the plates at a concentration of 2 ng/ml and incubated for 45 min. at 23-25° C. The amount of VEGF bound to heparin was detected using anti-VEGF monoclonal antibody (Sigma Cat. # V4758) at a concentration of 0.26 μg/ml and secondary antibodies Sheep anti-mouse IgG linked to horseradish peroxidase (1:2000). TMB (Pierce Cat. #34021) was used as a substrate for peroxidase.
# as §1
# HUVEC cell = assay: Cell Migration Assay (Boyden chamber); type: cell-based; details: Homo sapiens, HUVEC cells, 5 h, read-out: Inhibition of chemotaxis IC50
# Description: Cord formation and cell migration assays were executed following explicit directives provided by the inventors of the present invention by the National Cancer Institute (Biological Testing Branch, Developmental Therapeutics Program, DCTD, NCI, Fairview Center, Suite 205, 1003 West 7th Street, Frederick, Md. 21701-8527).
# Cell Migration Assay—Migration was assessed using a 48-well Boyden chamber including 8 μm pore size collagen-coated (10 μg/ml rat tail collagen; Collaborative Laboratories) polycarbonate filters (Osmonics, Inc.). The bottom chamber wells included 27-29 μl of DMEM medium alone (baseline) or medium containing chemo-attractant (bFGF, VEGF or Swiss 3T3 cell conditioned medium). The top chambers included 45 μl of HUVEC cell suspension (1×10^6 cells/ml) prepared in DMEM+1% BSA with or without the test compound. Followinf 5 h of incubation at 37° C., the membrane was rinsed with PBS, fixed and stained in Diff-Quick solutions. The filter was placed on a glass slide with the migrated cells facing down and cells on top were removed using a Kimwipe. The testing was performed in 4-6 replicates where five fields were counted from each well. Negative unstimulated control values were subtracted from stimulated control and drug treated values. Data wad plotted as mean migrated cell±S.D. IC50 was calculated from the plotted data.
# [1] = test system: MPanc-96 pancreatic tumor cells; assay: MPanc-96 pancreatic tumor xenograft in SCID mice; type: in vivo
# Description: Mpanc-96 tumor cell injection—MPanc-96 pancreatic tumor cells were obtained from the ATCC(CCL-2380). On day 1, cells (5×10^6 cells/0.2 ml RPMI+FBS) were subcutaneously injected to the right flank, midway between the axillary and inguinal regions, of SCID mice. Prior to injection the cells were mixed by gentle vortexing. The cells were injected using a 25G needle, and the appearance of a bulge was observed. Following injection to animals, cells were counted in the leftover tubes with trypan blue, and re-cultured to test proliferation.
# Compound 5 injections—Tumors were measured prior to inhibitor injection. […] The animals were injected intraperitoneally, daily, twice a day, starting 6 days after tumor cells injection, with 50 μl plain DMSO or 50 μl of Compound 5 in DMSO (8 mg/ml in DMSO).
# Tumor growth—Tumor size was measured in two perpendicular dimensions, twice a week using digital calipers. Volumes were estimated using the formula (α^2×β)/2, where α is the shorter of the two dimensions, and β is the longer of the two dimensions.
# Study termination—At the end of the study, 21 days following tumor cell injection, animals were euthanized by IP veterinary penthal injection. In case of severe weight loss (>20%), a tumor>1000 mm^3 or depression, an animal was euthanized prior to the study's termination day. Upon animal death prior to the end of the study, body weight and tumor size were measured.
structure (smiles),measurement,setting,value
O=C(O)CCCN1C(=O)C(=Cc2ccc(-c3ccc([N+](=O)[O-])cc3)o2)SC1=S [Compound 5],change in conformation of H60 induced by heparin,pro-heparanase (H60),prevents the change in conformation
same,IC50,β-FGF,6.1 µM
same,IC50,VEGF,3.2 µM
same,IC50,HUVEC cell,400 nM
same,reduction of tumor volume,"[1]; 10 mg/kg/day, compared with 40 mg/kg/day",twice as much reduction
same,reduction of tumor volume,"[1]; 40 mg/kg/day, intraperitoneally, SCID mice",35%
same,tumor growth in SCID mice,"[1]; mouse, in vivo",inhibited tumor growth in SCID mice efficiently
